US4046904A, “Novel penicillin, and its preparation and use” (Sumitomo Chemical Company, Limited, priority 1975, dated 1977)

Columns and labels:
[1] = Acute toxicity in mice, intraperitoneal (Table 9); details: mouse, in vivo, ip
Description: The acute toxicity of Compound (I) and Compound (C) in ICR strain mice when administered by intraperitoneal route are shown in Table 9.
(§1) Note: Compound (I) and Compound (C) were subjected to the test in the form of the sodium salt.

Klebsiella pneumoniae [2] = test: MIC, nutrient broth dilution (Table 2); type: cell-based
Experimental: (§2) Note: Compound (I), Compound (A) and Compound (B) were subjected to the test in the form of the sodium salt. For each test, eight male ICR-SLC strain mice were used at each dose level. MIC was determined by the nutrient broth dilution method. In determination of PD50, subcutaneous treatment was carried out twice, i.e. 1 and 4 hours after infection.

Escherichia coli [3] = test: MIC, nutrient broth dilution (Table 2); type: cell-based
Experimental: as §2

Pseudomonas aeruginosa [4] = test: MIC, nutrient broth dilution (Table 2); type: cell-based
Experimental: as §2

Klebsiella pneumoniae [5] = test: MIC (Table 3); type: cell-based; details: Klebsiella pneumoniae strain PCI602; sodium salt
Description: (§3) The minimum inhibitory concentrations obtained with Compound (I) and Compound (C) against the following organisms representing 6 genera are shown in Table 3.
as §1

Escherichia coli [6] = test: MIC (Table 3); type: cell-based
Description: as §3, §1

Pseudomonas aeruginosa [7] = test: MIC (Table 3); type: cell-based; details: Pseudomonas aeruginosa strain 104; sodium salt
Description: as §3, §1

Proteus vulgaris = test: MIC (Table 3); type: cell-based; details: Proteus vulgaris strain HX19; sodium salt
Description: as §3, §1

Staphylococcus aureus = test: MIC (Table 3); type: cell-based
Description: as §3, §1

Proteus mirabilis = test: MIC (Table 3); type: cell-based
Description: as §3, §1

[8] = Escherichia coli strain NIHJ, sodium salt

CC1(C)S[C@@H]2[C@H](NC(=O)[C@H](NC(=O)c3ccnnc3O)c3ccc(O)cc3)C(=O)N2[C@H]1C(=O)O [Compound (I), 6-[D-2-(3-hydroxypyridazine-4-carbonamido)-2-(p-hydroxyphenyl)acetamido]penicillanic acid] gave an LD50 [1] of 7100 mg/kg, an MIC (Klebsiella pneumoniae [2]; Klebsiella pneumoniae strain No. 1, sodium salt) of 6.25 µg/mL and an MIC (Klebsiella pneumoniae [2]; Klebsiella pneumoniae strain No. 6, sodium salt) of 25 µg/mL. For the same molecule, the MIC (Klebsiella pneumoniae [2]; Klebsiella pneumoniae strain No. 20, sodium salt) was 12.5 µg/mL, the MIC (Escherichia coli [3]; [8]) was 6.25 µg/mL and the MIC (Escherichia coli [3]; Escherichia coli strain No. 37, sodium salt) was 12.5 µg/mL. It also gave an MIC (Pseudomonas aeruginosa [4]; Pseudomonas aeruginosa strain NC-5, sodium salt) of 12.5 µg/mL, an MIC (Pseudomonas aeruginosa [4]; Pseudomonas aeruginosa strain T, sodium salt) of 25 µg/mL and an MIC (Klebsiella pneumoniae [5]) of 12.5 µg/mL. For the same molecule, the “antibacterial activity relative to Compound (C)” value (Escherichia coli [6]; Escherichia coli) was “inferior”, the MIC (Escherichia coli [6]; [8]) was 6.25 µg/mL and the MIC (Pseudomonas aeruginosa [7]) was 1.56 µg/mL. The MIC (Proteus vulgaris) was 0.025 µg/mL, the “antibacterial activity relative to Compound (C)” value (Staphylococcus aureus; Staphylococcus aureus) was “superior” and the MIC (Staphylococcus aureus; Staphylococcus aureus strain 209P, sodium salt) was 0.39 µg/mL. The “antibacterial activity relative to Compound (C)” value (Proteus mirabilis; Proteus mirabilis) was “inferior” and the MIC (Proteus mirabilis; Proteus mirabilis strain GN2425, sodium salt) was 6.25 µg/mL.
